Laboratory results from patent publication US20170137410A1, “FUSED CYCLOALKYL-PYRIMIDINE COMPOUNDS AND USES THEREOF” (Medivation Technologies, Inc., priority 2014, published 2017).

Columns and labels:
Type in all cases: biochemical
[1] = target: Trk C (Homo sapiens, UniProt Q16288); assay: HotSpot kinase assay against Trk C; conditions: HotSpot 33P assay, ATP 10 μM-30 μM
Experimental: (§1) Kinase assays were performed using test compounds against a panel of Trk kinases: Trk A; Trk B; and Trk C. Each compound was tested at a concentration of 0.1 μM in single duplicate mode against the three kinases. Compounds were prepared as 10 mM stock solutions in DMSO prior to use in the assay. The control compound, staurosporine, was tested at 10 concentrations with three-fold serial dilution starting at 20 μM. IC50 values and curve fits were obtained using Prism (GraphPad Software). IC50 values were determined for staurosporine for comparison.
(§2) The screening was performed using the “HotSpot” assay platform. The assay measures the conversion of a peptide substrate to ^33P-labelled phosphorylated product. Briefly, specific kinase/substrate pairs along with required cofactors were prepared in reaction buffer. Specifically, the substrate was prepared in reaction buffer (20 mM Hepes, pH 7.5; 10 mM MgCl2; 1 mM EGTA; 0.02% Brij35; 0.02 mg/mL BSA; 0.1 mM Na3VO4; 2 mM DTT; 1% DMSO), followed by delivery of any required cofactor to the resulting substrate solution. The corresponding kinase was delivered into the substrate solution and the reaction mixture was mixed gently. Compound was delivered into the reaction mixture, followed 15-20 min later by addition of a mixture of ATP (Sigma, St. Louis Mo.) and ^33P ATP (specific activity 0.01 μCi/μL final; Perkin Elmer, Waltham, Mass.) to a final concentration of 10 μM-30 μM to initiate the reaction. Reactions were carried out at RT for 120 min, followed by spotting of the reactions onto P81 ion exchange filter paper (Whatman #3698-915; Whatman Inc., Piscataway, N.J.). Unbound phosphate was removed by extensive washing of filters in 0.75% phosphoric acid. […] The percent of enzyme inhibition was calculated based on the percent of remaining kinase activity.

[2] = target: Trk B (Homo sapiens, UniProt Q16620); assay: HotSpot kinase assay against Trk B; conditions: HotSpot 33P assay, ATP 10 μM-30 μM
Trk B, sequence (Q16620 32-822): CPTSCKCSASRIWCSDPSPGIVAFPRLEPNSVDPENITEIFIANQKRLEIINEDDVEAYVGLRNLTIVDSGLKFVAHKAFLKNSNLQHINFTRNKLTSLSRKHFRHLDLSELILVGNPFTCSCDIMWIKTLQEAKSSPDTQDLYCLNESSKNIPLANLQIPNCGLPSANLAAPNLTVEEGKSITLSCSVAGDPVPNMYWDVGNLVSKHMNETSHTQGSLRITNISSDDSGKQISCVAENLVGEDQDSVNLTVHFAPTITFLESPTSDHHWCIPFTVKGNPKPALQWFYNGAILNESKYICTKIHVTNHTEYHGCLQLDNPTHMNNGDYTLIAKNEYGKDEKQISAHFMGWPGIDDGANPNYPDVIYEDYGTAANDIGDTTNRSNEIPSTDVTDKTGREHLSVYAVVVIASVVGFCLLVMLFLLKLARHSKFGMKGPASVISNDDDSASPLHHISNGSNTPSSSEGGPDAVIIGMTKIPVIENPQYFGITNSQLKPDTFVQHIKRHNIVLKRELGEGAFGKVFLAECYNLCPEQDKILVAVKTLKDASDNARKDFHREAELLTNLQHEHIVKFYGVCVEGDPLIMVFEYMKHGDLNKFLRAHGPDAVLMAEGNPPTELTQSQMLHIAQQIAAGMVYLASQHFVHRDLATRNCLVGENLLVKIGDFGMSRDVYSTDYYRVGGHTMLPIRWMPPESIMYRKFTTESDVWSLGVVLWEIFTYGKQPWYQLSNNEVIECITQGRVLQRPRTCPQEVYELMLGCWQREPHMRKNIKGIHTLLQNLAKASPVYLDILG
Experimental: as §1, §2

[3] = target: T1, activated IGF-1R (Homo sapiens, UniProt P08069); assay: In vitro IGF-1R enzymatic assay (ADP-Glo); conditions: ATP 100 μM; for inhibition at 1 µM: compound 1 μM; for inhibition at 3 µM: compound 3 μM; for inhibition at 10 µM: compound 10 μM; for inhibition at 30 µM: compound 30 μM
T1 construct: purchased Millipore 14-802
T1 sequence (P08069 31-1367): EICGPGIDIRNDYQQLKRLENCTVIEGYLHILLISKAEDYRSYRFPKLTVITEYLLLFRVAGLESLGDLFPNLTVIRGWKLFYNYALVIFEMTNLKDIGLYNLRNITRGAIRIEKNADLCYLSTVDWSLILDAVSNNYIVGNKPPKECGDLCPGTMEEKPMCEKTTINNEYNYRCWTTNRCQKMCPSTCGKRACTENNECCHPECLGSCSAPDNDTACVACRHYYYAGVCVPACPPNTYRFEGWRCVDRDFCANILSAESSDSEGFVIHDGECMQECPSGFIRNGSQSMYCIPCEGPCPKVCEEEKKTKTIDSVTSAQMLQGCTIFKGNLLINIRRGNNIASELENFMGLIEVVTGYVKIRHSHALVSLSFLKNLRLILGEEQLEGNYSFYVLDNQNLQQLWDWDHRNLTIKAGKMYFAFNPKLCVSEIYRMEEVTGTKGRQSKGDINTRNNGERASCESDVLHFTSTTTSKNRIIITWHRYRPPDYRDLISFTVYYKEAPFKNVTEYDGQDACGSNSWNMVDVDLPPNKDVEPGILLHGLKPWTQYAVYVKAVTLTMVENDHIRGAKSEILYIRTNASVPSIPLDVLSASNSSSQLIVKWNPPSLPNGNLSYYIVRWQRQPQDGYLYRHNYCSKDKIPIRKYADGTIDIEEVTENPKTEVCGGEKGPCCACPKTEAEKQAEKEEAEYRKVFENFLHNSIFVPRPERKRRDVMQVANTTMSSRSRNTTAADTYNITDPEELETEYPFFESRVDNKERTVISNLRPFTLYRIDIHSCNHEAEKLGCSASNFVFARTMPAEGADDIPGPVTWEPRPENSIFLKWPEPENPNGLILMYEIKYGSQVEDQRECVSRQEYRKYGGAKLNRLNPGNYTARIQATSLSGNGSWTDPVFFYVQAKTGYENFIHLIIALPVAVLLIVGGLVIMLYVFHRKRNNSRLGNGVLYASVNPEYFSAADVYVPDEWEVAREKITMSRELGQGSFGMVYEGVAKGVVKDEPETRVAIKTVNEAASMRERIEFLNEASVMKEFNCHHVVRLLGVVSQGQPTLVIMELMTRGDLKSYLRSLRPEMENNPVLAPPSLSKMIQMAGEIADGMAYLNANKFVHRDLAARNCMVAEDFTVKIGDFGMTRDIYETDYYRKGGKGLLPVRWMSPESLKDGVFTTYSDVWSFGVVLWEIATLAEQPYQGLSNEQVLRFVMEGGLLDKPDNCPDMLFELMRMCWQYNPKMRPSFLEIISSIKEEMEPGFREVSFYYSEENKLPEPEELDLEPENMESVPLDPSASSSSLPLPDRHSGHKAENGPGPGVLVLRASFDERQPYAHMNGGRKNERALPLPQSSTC
Experimental: (§3) Inhibition of IGF-1R and IR kinases by compounds described herein were tested. The IC50 values were measured in vitro using an ADP-Glo kinase assay Kit (Promega). For the IGF-1R assay, active recombinant IGF-1R (Millipore #14-802) was used at 1 ng/reaction, the substrate IGF-1R tide (Millipore #12-527) was used at 125 μM and ATP was used at 100 μM. For the IR assay, active recombinant IR (Millipore #14-803) was used at 1 ng/reaction, the substrate Axl tide (Millipore #12-516) was used at 125 μM and ATP at 50 μM. Kinase reactions in both assays were conducted at 30° C. for 20 min with increasing concentrations of the test compounds.
(§4) The assay results as the percent inhibition of binding are presented in Tables B2 and B3 for IGF-1R and IR respectively.

[4] = target: Trk A (Homo sapiens, UniProt P04629); assay: HotSpot kinase assay against Trk A; conditions: HotSpot 33P assay, ATP 10 μM-30 μM
Trk A, sequence (P04629 33-796): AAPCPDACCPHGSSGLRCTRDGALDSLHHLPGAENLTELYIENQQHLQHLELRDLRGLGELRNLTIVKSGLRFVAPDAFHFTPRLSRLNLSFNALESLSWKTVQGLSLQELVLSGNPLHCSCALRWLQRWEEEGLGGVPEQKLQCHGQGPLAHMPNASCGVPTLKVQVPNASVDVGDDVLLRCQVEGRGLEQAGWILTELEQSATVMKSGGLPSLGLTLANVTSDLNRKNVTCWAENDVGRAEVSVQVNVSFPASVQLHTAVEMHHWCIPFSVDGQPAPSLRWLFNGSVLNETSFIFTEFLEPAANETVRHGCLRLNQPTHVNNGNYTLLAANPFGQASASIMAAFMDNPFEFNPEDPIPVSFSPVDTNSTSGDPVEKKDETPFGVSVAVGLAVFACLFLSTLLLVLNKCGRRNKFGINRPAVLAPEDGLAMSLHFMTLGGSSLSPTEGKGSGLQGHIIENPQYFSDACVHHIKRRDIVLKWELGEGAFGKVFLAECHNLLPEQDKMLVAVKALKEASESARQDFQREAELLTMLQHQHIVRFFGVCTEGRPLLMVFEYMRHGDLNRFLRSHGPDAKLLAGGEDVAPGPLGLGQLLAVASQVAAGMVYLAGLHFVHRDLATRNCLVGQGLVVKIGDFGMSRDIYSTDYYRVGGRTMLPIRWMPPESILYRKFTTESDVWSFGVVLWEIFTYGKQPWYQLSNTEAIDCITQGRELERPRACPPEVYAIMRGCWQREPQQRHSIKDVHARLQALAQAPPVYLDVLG
Experimental: as §1, §2

[5] = target: T2, activated IR (Homo sapiens, UniProt P06213); assay: In vitro IR enzymatic assay (ADP-Glo); conditions: ATP 50 μM; for inhibition at 1 µM: compound 1 μM; for inhibition at 3 µM: compound 3 μM; for inhibition at 30 µM: compound 30 μM
T2 construct: purchased Millipore 14-803
T2 sequence (P06213 28-1382): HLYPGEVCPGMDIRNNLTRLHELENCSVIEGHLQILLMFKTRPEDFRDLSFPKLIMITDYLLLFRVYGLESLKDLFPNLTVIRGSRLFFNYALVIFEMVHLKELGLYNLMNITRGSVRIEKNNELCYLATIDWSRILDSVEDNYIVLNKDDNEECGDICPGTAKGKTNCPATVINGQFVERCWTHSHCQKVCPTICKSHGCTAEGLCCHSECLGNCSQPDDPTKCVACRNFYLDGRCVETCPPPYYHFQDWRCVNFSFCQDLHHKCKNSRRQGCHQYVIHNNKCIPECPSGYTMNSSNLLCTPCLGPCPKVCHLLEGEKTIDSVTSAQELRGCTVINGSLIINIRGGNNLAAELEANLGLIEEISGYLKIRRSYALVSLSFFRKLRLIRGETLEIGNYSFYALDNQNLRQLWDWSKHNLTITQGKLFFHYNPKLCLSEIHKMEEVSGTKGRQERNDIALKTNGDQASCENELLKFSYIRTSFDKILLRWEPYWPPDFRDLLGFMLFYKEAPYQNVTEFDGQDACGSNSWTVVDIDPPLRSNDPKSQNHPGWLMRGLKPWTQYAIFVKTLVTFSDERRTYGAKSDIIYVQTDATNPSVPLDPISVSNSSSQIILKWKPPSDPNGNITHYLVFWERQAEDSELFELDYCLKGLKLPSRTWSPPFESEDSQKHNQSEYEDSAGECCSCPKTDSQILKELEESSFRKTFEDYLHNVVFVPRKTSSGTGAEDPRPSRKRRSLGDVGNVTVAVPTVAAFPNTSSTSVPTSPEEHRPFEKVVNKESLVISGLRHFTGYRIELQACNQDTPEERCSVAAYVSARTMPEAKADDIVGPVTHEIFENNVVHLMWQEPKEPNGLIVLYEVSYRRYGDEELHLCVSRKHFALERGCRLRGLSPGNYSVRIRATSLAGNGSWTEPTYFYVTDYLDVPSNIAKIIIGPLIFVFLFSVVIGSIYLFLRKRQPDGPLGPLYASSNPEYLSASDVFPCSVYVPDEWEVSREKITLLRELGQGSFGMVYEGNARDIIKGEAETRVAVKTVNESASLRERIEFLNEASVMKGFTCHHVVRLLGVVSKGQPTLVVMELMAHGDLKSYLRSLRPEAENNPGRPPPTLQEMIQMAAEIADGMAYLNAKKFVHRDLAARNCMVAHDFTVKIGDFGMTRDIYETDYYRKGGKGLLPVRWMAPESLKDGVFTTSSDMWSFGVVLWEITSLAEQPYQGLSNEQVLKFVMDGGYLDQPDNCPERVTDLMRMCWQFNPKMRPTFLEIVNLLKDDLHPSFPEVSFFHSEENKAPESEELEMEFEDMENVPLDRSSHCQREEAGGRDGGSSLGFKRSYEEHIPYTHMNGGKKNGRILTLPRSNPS
Experimental: as §3, §4

Trk C, sequence (Q16288 32-839): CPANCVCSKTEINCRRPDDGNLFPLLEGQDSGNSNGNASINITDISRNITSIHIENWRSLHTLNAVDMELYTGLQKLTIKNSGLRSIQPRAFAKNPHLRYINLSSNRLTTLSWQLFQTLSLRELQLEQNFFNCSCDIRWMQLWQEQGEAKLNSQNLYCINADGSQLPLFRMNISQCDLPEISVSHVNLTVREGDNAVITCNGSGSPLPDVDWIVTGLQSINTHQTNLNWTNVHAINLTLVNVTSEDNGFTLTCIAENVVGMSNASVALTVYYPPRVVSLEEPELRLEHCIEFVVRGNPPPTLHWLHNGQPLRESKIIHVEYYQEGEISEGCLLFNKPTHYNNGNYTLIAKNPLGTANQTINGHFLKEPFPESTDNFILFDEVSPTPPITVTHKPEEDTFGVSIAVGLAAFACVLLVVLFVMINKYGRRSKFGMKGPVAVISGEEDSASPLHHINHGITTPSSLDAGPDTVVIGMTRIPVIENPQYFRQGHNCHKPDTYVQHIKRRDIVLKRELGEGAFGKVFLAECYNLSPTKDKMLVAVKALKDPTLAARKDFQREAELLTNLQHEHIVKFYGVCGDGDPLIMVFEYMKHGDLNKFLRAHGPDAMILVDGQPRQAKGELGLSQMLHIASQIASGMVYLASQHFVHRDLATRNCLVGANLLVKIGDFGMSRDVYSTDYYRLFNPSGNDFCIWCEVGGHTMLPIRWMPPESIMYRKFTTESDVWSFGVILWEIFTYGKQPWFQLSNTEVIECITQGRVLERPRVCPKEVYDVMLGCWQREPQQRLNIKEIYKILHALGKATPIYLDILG

SMILES: CN(C(=O)[C@@H]1CCCN1c1nc2c(c(Nc3cc(C4CCCC4)n[nH]3)n1)CCC2)c1nccs1 [70b, (2S)-1-[4-[(3-cyclopentyl-1H-pyrazol-5-yl)amino]-6,7-dihydro-5H-cyclopenta[d]pyrimidin-2-yl]-N-methyl-N-thiazol-2-yl-pyrrolidine-2-carboxamide]
- IC50 [1]: 1.2 nM
- IC50 [2]: 2 nM
- inhibition at 1 µM [3]: 35%
- inhibition at 3 µM [3]: 57%
- inhibition at 10 µM [3]: 83%
- inhibition at 30 µM [3]: 95%
- IC50 [4]: 26 nM
- inhibition at 1 µM [5]: 30%
- inhibition at 3 µM [5]: 60%
- inhibition at 30 µM [5]: 97%

SMILES: CN(C)C(=O)[C@H]1CCCN1c1nc2c(c(Nc3cc(C4CCOCC4)[nH]n3)n1)CCC2 [91a, (R)—N,N-dimethyl-1-(4-((5-(tetrahydro-2H-pyran-4-yl)-1H-pyrazol-3-yl)amino)-6,7-dihydro-5H-cyclopenta[d]pyrimidin-2-yl)pyrrolidine-2-carboxamide]
- IC50 [1]: 180 nM
- IC50 [2]: 403 nM
- inhibition at 1 µM [3]: 6%
- inhibition at 3 µM [3]: 14%
- inhibition at 10 µM [3]: 14%
- inhibition at 30 µM [3]: 38%
- IC50 [4]: 1440 nM
- inhibition at 1 µM [5]: 5%
- inhibition at 3 µM [5]: 16%
- inhibition at 30 µM [5]: 45%

SMILES: CN(C)C(=O)[C@@H]1CCCN1c1nc2c(c(Nc3cc(C4CCOCC4)[nH]n3)n1)CCC2 [91b, (S)-N,N-dimethyl-1-(4-(5-(tetrahydro-2H-pyran-4-yl)-1H-pyrazol-3-ylamino)-6,7-dihydro-5H-cyclopenta[d]pyrimidin-2-yl)pyrrolidine-2-carboxamide]
- IC50 [1]: 362 nM
- IC50 [2]: 902 nM
- inhibition at 1 µM [3]: 0%
- inhibition at 3 µM [3]: 4%
- inhibition at 10 µM [3]: -2%
- inhibition at 30 µM [3]: 21%
- IC50 [4]: 6310 nM
- inhibition at 1 µM [5]: 1%
- inhibition at 3 µM [5]: -2%
- inhibition at 30 µM [5]: 7%

SMILES: O=C([C@@H]1CCCN1c1nc2c(c(Nc3cc(C4CCCC4)[nH]n3)n1)CCC2)N1CCC(F)(F)C1 [109b, (S)-(1-(4-((5-cyclopentyl-1H-pyrazol-3-yl)amino)-6,7-dihydro-5H-cyclopenta[d]pyrimidin-2-yl)pyrrolidin-2-yl)(3,3-difluoropyrrolidin-1-yl)methanone]
- IC50 [1]: 0.3 nM
- IC50 [2]: 1 nM
- inhibition at 1 µM [3]: 12%
- inhibition at 3 µM [3]: 33%
- inhibition at 10 µM [3]: 61%
- inhibition at 30 µM [3]: 84%
- IC50 [4]: 11 nM
- inhibition at 1 µM [5]: 12%
- inhibition at 3 µM [5]: 39%
- inhibition at 30 µM [5]: 86%

SMILES: O=C([C@H]1CCCN1c1nc2c(c(Nc3cc(C4CCCC4)[nH]n3)n1)CCC2)N1CC(F)(F)C(F)(F)C1 [110a, (R)-(1-(4-((5-cyclopentyl-1H-pyrazol-3-yl)amino)-6,7-dihydro-5H-cyclopenta[d]pyrimidin-2-yl)pyrrolidin-2-yl)(3,3,4,4-tetrafluoropyrrolidin-1-yl)methanone]
- IC50 [1]: 80.4 nM
- IC50 [2]: 171 nM
- inhibition at 1 µM [3]: 31%
- inhibition at 3 µM [3]: 61%
- inhibition at 10 µM [3]: 83%
- inhibition at 30 µM [3]: 96%
- IC50 [4]: 189 nM
- inhibition at 1 µM [5]: 32%
- inhibition at 3 µM [5]: 64%
- inhibition at 30 µM [5]: 97%

SMILES: O=C([C@@H]1CCCN1c1nc2c(c(Nc3cc(C4CCCC4)[nH]n3)n1)CCC2)N1CC(F)(F)C(F)(F)C1 [110b, (S)-(1-(4-(5-cyclopentyl-1H-pyrazol-3-ylamino)-6,7-dihydro-5H-cyclopenta[d]pyrimidin-2-yl)pyrrolidin-2-yl)(3,3,4,4-tetrafluoropyrrolidin-1-yl)methanone]
- IC50 [1]: 0.8 nM
- IC50 [2]: 2 nM
- inhibition at 1 µM [3]: 1%
- inhibition at 3 µM [3]: 18%
- inhibition at 10 µM [3]: 34%
- inhibition at 30 µM [3]: 68%
- IC50 [4]: 41 nM
- inhibition at 1 µM [5]: 3%
- inhibition at 3 µM [5]: 21%
- inhibition at 30 µM [5]: 74%

SMILES: CC(C)c1cc(Nc2nc(N3CCC[C@H]3C(=O)N3CCC(F)(F)C3)nc3c2CCC3)n[nH]1 [111b, (S)-(3,3-difluoropyrrolidin-1-yl)(1-(4-((5-isopropyl-1H-pyrazol-3-yl)amino)-6,7-dihydro-5H-cyclopenta[d]pyrimidin-2-yl)pyrrolidin-2-yl)methanone]
- IC50 [1]: 0.7 nM
- IC50 [2]: 2 nM
- IC50 [4]: 53 nM
- inhibition at 1 µM [5]: 35%

SMILES: CC(C)c1cc(Nc2nc(N3CCC[C@@H]3C(=O)N3CC(F)(F)C(F)(F)C3)nc3c2CCC3)n[nH]1 [112a, (R)-(1-(4-((5-isopropyl-1H-pyrazol-3-yl)amino)-6,7-dihydro-5H-cyclopenta[d]pyrimidin-2-yl)pyrrolidin-2-yl)(3,3,4,4-tetrafluoropyrrolidin-1-yl)methanone]
- IC50 [1]: 279 nM
- IC50 [2]: 628 nM
- IC50 [4]: 670 nM
- inhibition at 1 µM [5]: 35%

SMILES: CC(C)c1cc(Nc2nc(N3CCC[C@H]3C(=O)N3CC(F)(F)C(F)(F)C3)nc3c2CCC3)n[nH]1 [112b, (S)-(1-(4-(5-isopropyl-1H-pyrazol-3-ylamino)-6,7-dihydro-5H-cyclopenta[d]pyrimidin-2-yl)pyrrolidin-2-yl)(3,3,4,4-tetrafluoropyrrolidin-1-yl)methanone]
- IC50 [1]: 1.3 nM
- IC50 [2]: 4 nM
- inhibition at 3 µM [3]: 36%
- inhibition at 10 µM [3]: 65%
- inhibition at 30 µM [3]: 86%
- IC50 [4]: 109 nM
- inhibition at 1 µM [5]: 12%
- inhibition at 3 µM [5]: 36%
- inhibition at 30 µM [5]: 89%

SMILES: O=C(Nc1nccs1)[C@@H]1CCCN1c1nc2c(c(Nc3cc(C4CCCC4)[nH]n3)n1)CCC2 [133b, (S)-1-(4-(5-cyclopentyl-1H-pyrazol-3-ylamino)-6,7-dihydro-5H-cyclopenta[d]pyrimidin-2-yl)-N-(thiazol-2-yl)pyrrolidine-2-carboxamide]
- IC50 [1]: 0.243 nM
- IC50 [2]: 0.038 nM
- inhibition at 1 µM [3]: 95%
- IC50 [4]: 0.515 nM
- inhibition at 1 µM [5]: 97%

SMILES: CN1CCN(C(=O)[C@H]2CCCN2c2nc3c(c(Nc4cc(C5CCCC5)[nH]n4)n2)CCC3)CC1 [134a, (R)-(1-(4-(5-cyclopentyl-1H-pyrazol-3-ylamino)-6,7-dihydro-5H-cyclopenta[d]pyrimidin-2-yl)pyrrolidin-2-yl)(4-methylpiperazin-1-yl)methanone]
- IC50 [1]: 44.4 nM
- IC50 [2]: 90 nM
- inhibition at 1 µM [3]: 73%
- IC50 [4]: 32 nM
- inhibition at 1 µM [5]: 80%

SMILES: CN1CCN(C(=O)[C@@H]2CCCN2c2nc3c(c(Nc4cc(C5CCCC5)[nH]n4)n2)CCC3)CC1 [134b, (S)-(1-(4-(5-cyclopentyl-1H-pyrazol-3-ylamino)-6,7-dihydro-5H-cyclopenta[d]pyrimidin-2-yl)pyrrolidin-2-yl)(4-methylpiperazin-1-yl)methanone]
- IC50 [1]: 4.8 nM
- IC50 [2]: 31 nM
- inhibition at 1 µM [3]: 16%
- inhibition at 3 µM [3]: 26%
- inhibition at 10 µM [3]: 55%
- inhibition at 30 µM [3]: 77%
- IC50 [4]: 337 nM
- inhibition at 1 µM [5]: 26%
- inhibition at 3 µM [5]: 36%
- inhibition at 30 µM [5]: 85%

SMILES: CC1(C)CCN(C(=O)[C@@H]2CCCN2c2nc3c(c(Nc4cc(C5CCCC5)n[nH]4)n2)CCC3)CC1 [135b, [(2S)-1-[4-[(3-cyclopentyl-1H-pyrazol-5-yl)amino]-6,7-dihydro-5H-cyclopenta[d]pyrimidin-2-yl]pyrrolidin-2-yl]-(4,4-dimethyl-1-piperidyl)methanone]
- IC50 [1]: 2.5 nM
- IC50 [2]: 1 nM
- inhibition at 1 µM [3]: 12%
- inhibition at 3 µM [3]: 14%
- inhibition at 10 µM [3]: 43%
- inhibition at 30 µM [3]: 82%
- IC50 [4]: 12 nM
- inhibition at 1 µM [5]: 11%
- inhibition at 3 µM [5]: 26%
- inhibition at 30 µM [5]: 88%

SMILES: CC(C)c1cc(Nc2nc(N3CCC[C@@H]3C(=O)N3CCC(F)(F)C3)nc3c2CCC3)n[nH]1 [139a, (R)-(3,3-difluoropyrrolidin-1-yl)(1-(4-((5-isopropyl-1H-pyrazol-3-yl)amino)-6,7-dihydro-5H-cyclopenta[d]pyrimidin-2-yl)pyrrolidin-2-yl)methanone]
- IC50 [1]: 144 nM
- IC50 [2]: 258 nM
- IC50 [4]: 669 nM
- inhibition at 1 µM [5]: 42%
